Structures can show the parent of a compound that is named as a salt.
Columns and labels:
[1] = tested on: panting in the guinea pig induced by histamine plus acetylcholine; assay: Dyspnea-relieving effect on panting in the guinea pig induced by histamine plus acetylcholine; format: in vivo, guinea pigs; conditions: Aminophylline 0.05 g/kg i.g. q.d. 3 days, n=10
From the text: Sixty white purebred guinea pigs of Grade I evenly composed of males and females with the mean body weight of 198.55 ± 6.30g, provided by Beijing Keyu Animal Breeding Center, License number: SCXK (Jing) 2002-0005.
The healthy guinea pigs evenly composed of males and females were screened preciously. The guinea pigs were individually placed into the 4 L bell-shape glass container and sprayed with a mixed liquid of 2 % acetylcholine chloride and 0.1 % histamine phosphate in equal volumes at a pressure of 400 mmHg for 20s. […] The guinea pig showing the incubation period for asthmatic convulsion above 120s would not be chosen. […] The animals in the test groups were intragastrically administered q.d. at a volume of 5 ml/kg for consecutive three days, while the animals in the control group were administered with equal amount of physiological saline. An asthma-inducing experiment was performed in 30 min post the final administration. The guinea pigs were individually placed into the 4 L bell-shape glass container and sprayed with a mixed liquid of 2 % acetylcholine chloride plus 0.1 % histamine phosphate in equal volumes at a pressure of 400 mmHg for 20s. […] The incubation period lasting for more than 6 min was counted as 360 s. The experimental results were compared among the groups by t-test.

sputum volume in mice = assay: Effect on sputum volume in mice measured by phenol red; format: in vivo, ICR mice; conditions: Mucosolvan 16mg/kg i.g. q.d. 3 days; n=10
Method: • (1) The present medication to be tested, 6.25 g crude drugs/g, provided by Shijiazhuang Yiling Pharmaceutical Co. Ltd., lot number: 060501. • (2) GLKCNC as the traditional Chinese medicine control, 1g crude drugs/pill (0.3g of powder per pill), produced by Shanxi Guilong pharmaceutical Co., Ltd., Approval number: SFDA Approval No. Z-11; Lot number of the product: 060112; valid until December 2007. • (3) Mucosolvan as a western medicine control, 30mg/tablet, the product of Boehringer Ingelheim Int. Ltd. German, lot number: 206362, distribution lot number:030307. […]
Sixty healthy mice were randomly assigned into the following six groups: (1) the blank control group administered with distilled water (25 ml/kg); (2) the Mucosolvan group (16 mg/kg); (3) the GLKCNC group (2 g crude drugs/kg); (4) the low dosage group of the present medication (L-dosage group, 3 g crude drugs/kg); (5) the medium dosage group of the present medication (M-dosage group, 6 g crude drugs/kg); (6)the high dosage group of the present medication (H-dosage group, 12 g crude drugs/kg). […] The optical density (OD) value of the flush liquid was measured by a UV-visible spectrophotometer UV-120-02 at a wavelength of 546nm, in which the level of phenol red in the flush liquid (µg/ml) was calculated on the basis of phenol red standard curve. […]

sputum volume in rats = assay: Effect on sputum volume in rats measured by capillary; format: in vivo
Method: • (1) The present medication to be tested, 6.25 g of crude drug/g, provided by Shijiazhuang Yiling Pharmaceutical Co. Ltd., lot number: 060501. • (2) GLKCNC as the traditional Chinese medicine control, 1g crude drugs/pill (0.3g of powder per pill), produced by Shanxi Guilong pharmaceutical Co., Ltd., Approval number: SFDA Approval No. Z-11; Lot number of the product: 060112; valid until December 2007. • (3) Mucosolvan as a western medicine control, 30mg/tablet, the product of Boehringer Ingelheim Int. Ltd. German, lot number: 206362, distribution lot number:030307.
Sixty SPF Wistar […] evenly composed of males and females with the mean body weight of 174.38 ± 7.64 g, provided by Institute of Laboratory Animal Science, Chinese Acadamy of Medical Sciences, and License number: SCXK (Jing) 2000-0006.
The sixty healthy rats were randomly assigned into the following six groups: (1) the blank control group administered with distilled water (10 ml/kg); (2) the Mucosolvan group (11 mg /kg); (3) the GLKCNC group (1.5 g crude drug/kg); (4) the low dosage group of the present medication (L-dosage group, 2 g crude drug/kg); (5) the medium dosage group of the present medication (M-dosage group, 4 g crude drug/kg); (6)the high dosage group of the present medication (H-dosage group, 8 g crude drug/kg). […] The skin of neck was incised and the trachea was separated, on which an orifice was pricked with a syringe needle at the median site of the lower edge of the thyroid cartilage between the two cartilages. A piece of glass capillary with the length of 5 cm and the inner diameter of 0.8 mm was inserted through the orifice in a way such that the glass capillary was just contact the inner wall of the trachea. When the glass capillary was filled up with sputum, it would be replaced immediately with another one. The sputum volume in capillaries was determined in 1 hour prior to the administration. One hour later, the animals in the experimental group were administered duodenally with the medications at a volume of 10 ml/kg, while the animals in the control group were administered with equal amount of physiological saline. […] Comparisons among the groups were performed by t-test with the average amount of the secretion in 1 hour prior to administration serving as a normal value.

[2] = tested on: citric acid-induced cough; assay: Cough-checking effect on citric acid-induced cough in guinea pigs; format: in vivo; conditions: CHT 7mg/kg i.g. q.d. 3 days; n=10
Method: • (1) The present medication to be tested, 6.25g crude drugs/g, provided by Shijiazhuang Yiling Pharmaceutical Co. Ltd., lot number: 060501. • (2) GLKCNC as the traditional Chinese medicine control, 1g crude drugs/pill (0.3g of powder per pill), produced by Shanxi Guilong pharmaceutical Co., Ltd., Approval number: SFDA Approval No. Z-11; Lot number of the product: 060112; valid until December 2007. • (3) CHT as the Western medicine control, 10 mg/tablet, produced by Beijing Shuguang Pharmaceutical Co., Ltd., production date: 200606; lot number: 060619; valid until June, 2008.
Sixty purebred guinea pigs of Grade I evenly composed of males and females with the mean body weight of 206.65 ± 6.92g, provided by Beijing Keyu Animal Breeding Center, License number: SCXK (Jing) 2002-0005.
The guinea pigs were individually placed into the sealed 4L bell-shape container with prior to the experiment and a solution of 17.5% citric acid was sprayed for 1 minute at a pressure of 400 mmHg through the glass sparger. The guinea pigs were screened according to the cough number recorded within 5 minutes Guinea pigs with a cough number of less than 10 were rejected and the qualified ones were chosen for the experiment. […]

[3] = tested on: aqueous ammonia-induced cough in mice; assay: Cough-checking effect on the aqueous ammonia-induced cough in mice; format: in vivo, Kunming mice; conditions: CHT 12mg/kg i.g. q.d. 3 days; n=10
Method: • (1) The present medication to be tested, 6.25g crude drugs/g (i.e.,1g of the medication was made from 6.25g crude drugs), provided by Shijiazhuang Yiling Pharmaceutical Co. Ltd., lot number: 060501, and diluted to required concentrations with distilled water in the experiment. • (2) Cloperastine Hydrochloride Tablet (CHT) as the positive control of a western medicine, 10mg/tablet, produced by Beijing Shuguang Pharmaceutical Co., Ltd. lot number: 060619, and valid until June, 2008. • (3) Gui Long Ke Chuan Ning Capsule (GLKCNC) as the positive control of a traditional Chinese medicine, 1g crude drugs/pill (0.3g of powder per pill), produced by Shanxi Guilong pharmaceutical Co., Ltd., Approval number: SFDA Approval No. Z-11; Lot number of the product: 060112; valid until December 2007.
Sixty Kunming mice of Grade II evenly composed of males and females with the mean body weight of 19.90 ± 0.66 g, provided by Institute of Laboratory Animal Science, Chinese Academy of Medical Sciences, License number: SCXK (Jing) 2000-0006. […]

[4] = Mucosolvan 11mg/kg duodenal, n=10
[5] = Mucosolvan 11mg/kg duodenal, vs 1 h prior to administration

SMILES: Cn1c(=O)c2[nH]cnc2n(C)c1=O [Aminophylline]
- Falling-down time [1]: 358.5 ± 3.4 s
- Incubation period ([1]; more than 6 min counted as 360 s): 228.0 ± 43.3 s

SMILES: Cl.Nc1c(Br)cc(Br)cc1CNC1CCC(O)CC1 (centres unmarked) [Mucosolvan]
- Amount of excreted phenol red (sputum volume in mice): 1.538 ± 0.486 µg/mL
- Excretion value, 1 h post administration (sputum volume in rats; [4]): 8.76±2.51 cm
- Excretion value, 2 h post administration (sputum volume in rats; [4]): 8.50±1.79 cm
- Excretion value, Change rate, 1 h post administration (sputum volume in rats; [5]): 238.05±77.76%
- Excretion value, Change rate, 2 h post administration (sputum volume in rats; [5]): 67.48±11.94%
- Excretion value, Difference, 1 h post administration (sputum volume in rats; [5]): 6.01±1.56 cm
- Excretion value, Difference, 2 h post administration (sputum volume in rats; [5]): 5.75±1.64 cm
- Excretion value, 1 h prior to administration (sputum volume in rats; Mucosolvan group 11mg/kg, baseline before dosing, n=10): 2.75±1.08 cm

SMILES: Clc1ccc(C(OCCN2CCCCC2)c2ccccc2)cc1 (centres unmarked) [CHT, Cloperastine Hydrochloride]
- Cough number [2]: 6.10±3.57 times/5min
- Incubation period [2]: 196.80 ± 66.22 s
- Cough number [3]: 28.40±9.75 times /3 min
- Incubation period [3]: 118.30 ± 27.23 s

Source: patent EP2450046B1, “A MEDICINAL COMPOSITION FOR THE TREATMENT OF BRONCHITIS AND PREPARATION THEREOF” (Hebei Yiling Medicine Research Institute Co., Ltd., priority 2009, dated 2011)
